{"source": "patent US12396951B2", "about": "“Prevention of local tumor recurrence following surgery using sustainedand/or delayed release of medicaments contained in micro-particles” (UPEXMED CO. LTD., priority 2016, dated 2025)", "assay": "In vitro release study of EVE-PLGA microsphere (sample-and-separate method)", "type": "physicochemical", "settings": "during in vitro release study, release medium pH 7.4, 37° C.", "protocol": "The in vitro release study was carried out by a sample-and-separate method. Briefly, 20 mg of microsphere sample (n=3) was taken in a 100 mL flask and dispersed in 50 mL of release medium (0.5% Tween 20 and 0.1% sodium azide in phosphate buffered saline (PBS) at pH 7.4). The flasks were placed in an orbital agitating incubator at 37° C. and shaken at 100 rpm. At certain time points (E10PA53 at 1, 3, 7, 14, 21, 28, 35, 42, 49, 56 days and E10PE77 at 1, 3, 7, 14, 21, 28, 35, 42, 49, 56, 63, 70, 77, 84, 91 days), all medium was collected and filtered on filter paper. The filtered pellet was freeze-dried for 24 h and dissolved in acetonitrile. The content of the unreleased EVE was then analyzed by HPLC as described above. Since EVE was known to be degradable in aqueous solution as a free form in a time-dependent manner, the EVE content was analyzed in the microsphere residue.\nThe microspheres were also prepared using a membrane with a pore size of 50 μm, which produced microspheres having a diameter size larger than 75 μm. To analyze the release behavior of EVE from the microspheres, an in vitro release study was performed by a sample-and-separate method at physiological conditions. […] The content of EVE was determined in the remaining microsphere after collecting whole samples at certain time points to avoid degradation-related loss of EVE in an aqueous environment."}
{"smiles": "CO[C@H]1C[C@@H]2CC[C@@H](C)[C@@](O)(O2)C(=O)C(=O)N2CCCC[C@H]2C(=O)O[C@H]([C@H](C)C[C@@H]2CC[C@@H](OCCO)[C@H](OC)C2)CC(=O)[C@H](C)/C=C(\\C)[C@@H](O)[C@@H](OC)C(=O)[C@H](C)C[C@H](C)/C=C/C=C/C=C/1C", "note": "[EVE, everolimus]", "values": [{"measurement": "stability of EVE in the microsphere", "result": "no change in the stability"}]}
